Results reported in ChEMBL document CHEMBL1140513, “Heteroatom-linked indanylpyrazines are corticotropin releasing factor type-1 receptor antagonists” (Bioorg Med Chem Lett, 2007).

These molecules were tested against T1, Corticotropin-releasing factor receptor 1 (Homo sapiens, UniProt P34998) (assay: Displacement of [125I]Tyr-o-CRF from CRF1 receptor in IMR32 cells).
T1 sequence (P34998 whole entry): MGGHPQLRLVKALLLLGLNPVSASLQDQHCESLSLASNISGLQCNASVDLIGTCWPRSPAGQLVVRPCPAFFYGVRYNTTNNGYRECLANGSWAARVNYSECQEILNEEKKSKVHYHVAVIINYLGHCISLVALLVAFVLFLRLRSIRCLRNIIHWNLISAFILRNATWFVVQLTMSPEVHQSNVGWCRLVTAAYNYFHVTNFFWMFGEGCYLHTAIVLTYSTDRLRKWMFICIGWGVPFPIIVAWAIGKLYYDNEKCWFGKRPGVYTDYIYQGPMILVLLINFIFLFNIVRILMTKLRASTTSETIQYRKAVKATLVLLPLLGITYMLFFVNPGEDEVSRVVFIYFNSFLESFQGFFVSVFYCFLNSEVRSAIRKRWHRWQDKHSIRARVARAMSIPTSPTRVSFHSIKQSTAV
Format: cell-based, IMR-32

| Ki [nM] | SMILES |
| --- | --- |
| 115 | CCc1nc(NC(CC)CC)c(CC)nc1Nc1ncc(Cl)cc1Cl |
| 2020 | CCc1nc(Oc2cc(C)ccn2)c(CC)nc1N[C@@H]1c2ccccc2C[C@@H]1OC(C)=O |
| > 10000 | CCc1nc(NC(CC)CC)c(CC)nc1Nc1ccc(Cl)cc1Cl |
| 5470 | CCO[C@H]1Cc2ccccc2[C@@H]1Nc1nc(CC)c(Oc2cc(C)ccn2)nc1CC |
| 509 | CCO[C@H]1Cc2ccccc2[C@H]1Nc1nc(CC)c(Oc2ncccc2C)nc1CC |
| 1730 | CCc1nc(N[C@@H]2c3ccccc3C[C@@H]2OCCF)c(CC)nc1Nc1ncc(Cl)cc1Cl |
| 30 | CCCO[C@H]1Cc2ccccc2[C@H]1Nc1nc(CC)c(Oc2cc(C)ccn2)nc1CC |
| > 10000 | CCO[C@@H]1Cc2ccccc2[C@@H]1Nc1nc(CC)c(Oc2cc(C)ccn2)nc1CC |
| > 10000 | CCc1nc(NC(CC)CC)c(CC)nc1Nc1ccccn1 |
| 384 | CCOCC(Nc1nc(CC)c(Oc2cc(C)ccn2)nc1CC)c1ccccc1 (centres undefined) |
| > 10000 | CCc1nc(Oc2cc(C)ccn2)c(CC)nc1N[C@H]1c2ccccc2C[C@H]1O |
| 472 | CCO[C@H]1Cc2ccccc2[C@H]1Nc1nc(CC)c(Oc2cccc(C)n2)nc1CC |
| > 10000 | CCO[C@@H]1Cc2ccccc2[C@H]1Nc1nc(CC)c(Oc2cc(C)ccn2)nc1CC |
| > 10000 | CCc1nc(Oc2cc(C)ccn2)c(CC)nc1NC(CC)CC |
| 35 | CCO[C@H]1Cc2ccccc2[C@H]1Nc1nc(CC)c(Oc2cc(C)ccn2)nc1CC |
| > 10000 | CCc1nc(NC(CC)CC)c(CC)nc1Nc1ccc([N+](=O)[O-])cn1 |
| 3380 | CCc1nc(NC(CC)CC)c(CC)nc1Nc1cccc(C)n1 |
| 711 | CCCN(CCC)c1nc(CC)c(Oc2cc(C)ccn2)nc1CC |
| > 10000 | CCc1nc(NC(CC)c2ccccc2)c(CC)nc1Nc1ncc(Cl)cc1Cl (centres undefined) |
